Experimental data published in article PMC11995724, “Antibiotic target discovery by integrated phenotypic and activity-based profiling of electrophilic fragments” (Cell chemical biology, 2025).

Experiment: in vitro
Settings: human, hek293t cells

## C=CC(=O)NC(CO)c1ccnn1C (centres unmarked) [2-D17, N-[2-hydroxy-1-(1-methyl-1H-pyrazol-5-yl)ethyl]prop-2-enamide]
  viability at 48 h, 25 µM: 45.9%

## C=CC(=O)N1CCC(C(=O)NCC2([S+](C)[O-])CCC2)CC1 (centres unmarked) [2-D18, N-[(1-methanesulfinylcyclobutyl)methyl]-1-(prop-2-enoyl)piperidine-4-carboxamide]
  viability at 48 h, 25 µM: 73.4%

## C=CC(=O)N(C)Cc1ncc(C(F)(F)F)n1C [2-D19, N-methyl-N-{[1-methyl-5-(trifluoromethyl)-1H-imidazol-2-yl]methyl}prop-2-enamide]
  viability at 48 h, 25 µM: 70.6%

## C=CC(=O)NCCC(=O)N1CCCN(C(=O)c2ccccc2F)CC1 [2-D20, N-{3-[4-(2-fluorobenzoyl)-1,4-diazepan-1-yl]-3-oxopropyl}prop-2-enamide]
  viability at 48 h, 25 µM: 93.7%

## C=CC(=O)NCc1ncccc1S(C)(=O)=O [2-D21, N-[(3-methanesulfonylpyridin-2-yl)methyl]prop-2-enamide]
  viability at 48 h, 25 µM: 80%

## C=CC(=O)NCc1ccc(C(=O)N2CCCC2C(=O)N(C)C)cc1 (centres unmarked) [2-D22, N,N-dimethyl-1-{4-[(prop-2-enamido)methyl]benzoyl}pyrrolidine-2-carboxamide]
  viability at 48 h, 25 µM: 71.2%

## C=CC(=O)NCC1CC(CC(=O)O)CO1 (centres unmarked) [2-E03, 2-{5-[(prop-2-enamido)methyl]oxolan-3-yl}acetic acid]
  viability at 48 h, 25 µM: 182%

## C=CC(=O)NC1(c2ccc(C(F)(F)F)cc2)CCCC1 [2-E04, N-{1-[4-(trifluoromethyl)phenyl]cyclopentyl}prop-2-enamide]
  viability at 48 h, 25 µM: 82.6%

## C=CC(=O)NC[C@@H]1C[C@H](F)CN1Cc1ccnn1C [2-E05, N-{[(2S,4S)-4-fluoro-1-[(1-methyl-1H-pyrazol-5-yl)methyl]pyrrolidin-2-yl]methyl}prop-2-enamide]
  viability at 48 h, 25 µM: 78.5%

## C=CC(=O)Nc1ccc(S(=O)(=O)N(C)C)c(C)c1 [2-E06, N-[4-(dimethylsulfamoyl)-3-methylphenyl]prop-2-enamide]
  viability at 48 h, 25 µM: 78.7%

## C=CC(=O)N(Cc1cc(C)cc2c(C)c(C)[nH]c12)CC1(C)COC1 [2-E07, N-[(3-methyloxetan-3-yl)methyl]-N-[(2,3,5-trimethyl-1H-indol-7-yl)methyl]prop-2-enamide]
  viability at 48 h, 25 µM: 80.6%

## C=CC(=O)N1CCC(n2cc(CO)nn2)C1 (centres unmarked) [2-E08, 1-{3-[4-(hydroxymethyl)-1H-1,2,3-triazol-1-yl]pyrrolidin-1-yl}prop-2-en-1-one]
  viability at 48 h, 25 µM: 81.8%

## C=CC(=O)N1CCC(c2nc(C3CC3)no2)C1 (centres unmarked) [2-E09, 1-[3-(3-cyclopropyl-1,2,4-oxadiazol-5-yl)pyrrolidin-1-yl]prop-2-en-1-one]
  viability at 48 h, 25 µM: 70%

## C=CC(=O)Nc1cc(NC(=O)C2CCC2)ccc1F [2-E10, N-[4-fluoro-3-(prop-2-enamido)phenyl]cyclobutanecarboxamide]
  viability at 48 h, 25 µM: 86.7%

## C=CC(=O)NC1CN(S(=O)(=O)c2ccc3c(c2)OCCO3)C1 [2-E11, N-[1-(2,3-dihydro-1,4-benzodioxine-6-sulfonyl)azetidin-3-yl]prop-2-enamide]
  viability at 48 h, 25 µM: 79.7%

## C=CC(=O)N1CCC(C(=O)N2CCCC2COC)CC1 (centres unmarked) [2-E12, 1-{4-[2-(methoxymethyl)pyrrolidine-1-carbonyl]piperidin-1-yl}prop-2-en-1-one]
  viability at 48 h, 25 µM: 116%

## C=CC(=O)N(Cc1ccc(F)c(C)c1)CC1(O)CCSCC1 [2-E13, N-[(4-fluoro-3-methylphenyl)methyl]-N-[(4-hydroxythian-4-yl)methyl]prop-2-enamide]
  viability at 48 h, 25 µM: 55.6%

## C=CC(=O)NCCS(=O)(=O)N1CCOCC1 [2-E14, N-[2-(morpholine-4-sulfonyl)ethyl]prop-2-enamide]
  viability at 48 h, 25 µM: 94.6%

## C=CC(=O)NCc1nc(C(C)(C)O)n[nH]1 [2-E15, N-{[3-(2-hydroxypropan-2-yl)-1H-1,2,4-triazol-5-yl]methyl}prop-2-enamide]
  viability at 48 h, 25 µM: 116%

## C=CC(=O)Nc1ccc(-n2nc(C)[nH]c2=O)cc1 [2-E16, N-[4-(3-methyl-5-oxo-4,5-dihydro-1H-1,2,4-triazol-1-yl)phenyl]prop-2-enamide]
  viability at 48 h, 25 µM: 101%

## C=CC(=O)N1CCCCC(S(C)(=O)=O)C1 (centres unmarked) [2-E17, 1-(3-methanesulfonylazepan-1-yl)prop-2-en-1-one]
  viability at 48 h, 25 µM: 110%

## C=CC(=O)N1CCCC(CS(=O)(=O)NC)C1 (centres unmarked) [2-E18, N-methyl-1-[1-(prop-2-enoyl)piperidin-3-yl]methanesulfonamide]
  viability at 48 h, 25 µM: 95%

## C=CC(=O)NC1CCC(n2c(C)ccc2C)CC1 (centres unmarked) [2-E19, N-[4-(2,5-dimethyl-1H-pyrrol-1-yl)cyclohexyl]prop-2-enamide]
  viability at 48 h, 25 µM: 71.1%

## C=CC(=O)N(C)CC(=O)N1CCCCC1c1nc(C)c(C)s1 (centres unmarked) [2-E20, N-{2-[2-(4,5-dimethyl-1,3-thiazol-2-yl)piperidin-1-yl]-2-oxoethyl}-N-methylprop-2-enamide]
  viability at 48 h, 25 µM: 116%

## C=CC(=O)Nc1ccc(C(=O)N2CCC[C@@H]2C(=O)OC)cc1 [2-E21, methyl (2R)-1-[4-(prop-2-enamido)benzoyl]pyrrolidine-2-carboxylate]
  viability at 48 h, 25 µM: 104%

## C=CC(=O)NC(CO)c1cccc(OC)c1 (centres unmarked) [2-E22, N-[2-hydroxy-1-(3-methoxyphenyl)ethyl]prop-2-enamide]
  viability at 48 h, 25 µM: 122%

## C=CC(=O)NCCn1cc(Cl)c(C(F)(F)F)n1 [2-F03, N-{2-[4-chloro-3-(trifluoromethyl)-1H-pyrazol-1-yl]ethyl}prop-2-enamide]
  viability at 48 h, 25 µM: 81.6%

## C=CC(=O)N1CCC(C(=O)N2Cc3ccc([N+](=O)[O-])cc3C2)CC1 [2-F04, 1-[4-(5-nitro-2,3-dihydro-1H-isoindole-2-carbonyl)piperidin-1-yl]prop-2-en-1-one]
  viability at 48 h, 25 µM: 82.7%

## C=CC(=O)N1CCC(C(=O)N2CCCC(NC(=O)C(C)(C)C)C2)CC1 (centres unmarked) [2-F05, 2,2-dimethyl-N-{1-[1-(prop-2-enoyl)piperidine-4-carbonyl]piperidin-3-yl}propanamide]
  viability at 48 h, 25 µM: 75.6%

## C=CC(=O)NCCC(=O)N1CCN(c2nc(C)cs2)C(C)C1 (centres unmarked) [2-F06, N-{3-[3-methyl-4-(4-methyl-1,3-thiazol-2-yl)piperazin-1-yl]-3-oxopropyl}prop-2-enamide]
  viability at 48 h, 25 µM: 92.9%

## C=CC(=O)NC1CCOC(c2cnn(C)c2)C1 (centres unmarked) [2-F07, N-[2-(1-methyl-1H-pyrazol-4-yl)oxan-4-yl]prop-2-enamide]
  viability at 48 h, 25 µM: 73%

## C=CC(=O)N(CC)CC(=O)N1CCCC1c1ccc(F)cc1C (centres unmarked) [2-F08, N-ethyl-N-{2-[2-(4-fluoro-2-methylphenyl)pyrrolidin-1-yl]-2-oxoethyl}prop-2-enamide]
  viability at 48 h, 25 µM: 74.7%

## C=CC(=O)NC1CC(CC(F)(F)F)C1 (centres unmarked) [2-F09, N-[3-(2,2,2-trifluoroethyl)cyclobutyl]prop-2-enamide]
  viability at 48 h, 25 µM: 65.5%

## C=CC(=O)N1CCC(C(=O)N(C)Cc2cc(C(C)(C)C)[nH]n2)CC1 [2-F10, N-[(5-tert-butyl-1H-pyrazol-3-yl)methyl]-N-methyl-1-(prop-2-enoyl)piperidine-4-carboxamide]
  viability at 48 h, 25 µM: 45.6%

## C=CC(=O)NCc1cn(C(F)F)c2ccccc12 [2-F11, N-{[1-(difluoromethyl)-1H-indol-3-yl]methyl}prop-2-enamide]
  viability at 48 h, 25 µM: 49%

## C=CC(=O)N1CCC(C(=O)N2CCCC(CC(N)=O)CC2)CC1 (centres unmarked) [2-F12, 2-{1-[1-(prop-2-enoyl)piperidine-4-carbonyl]azepan-4-yl}acetamide]
  viability at 48 h, 25 µM: 65.1%

## C=CC(=O)NCc1coc(-c2ccc(C)cc2)n1 [2-F13, N-{[2-(4-methylphenyl)-1,3-oxazol-4-yl]methyl}prop-2-enamide]
  viability at 48 h, 25 µM: 48.2%

## C=CC(=O)N1CCC(C(=O)N(C)C(C)Cc2ccc(C)cc2)CC1 (centres unmarked) [2-F14, N-methyl-N-[1-(4-methylphenyl)propan-2-yl]-1-(prop-2-enoyl)piperidine-4-carboxamide]
  viability at 48 h, 25 µM: 79.5%

## C=CC(=O)NCc1cc(Cl)c2c(c1)OCO2 [2-F15, N-[(7-chloro-1,3-dioxaindan-5-yl)methyl]prop-2-enamide]
  viability at 48 h, 25 µM: 50.9%

## C=CC(=O)N(C)CC(=O)N1CCC(CN2CCCCC2=O)CC1 [2-F16, N-methyl-N-(2-oxo-2-{4-[(2-oxopiperidin-1-yl)methyl]piperidin-1-yl}ethyl)prop-2-enamide]
  viability at 48 h, 25 µM: 57%

## C=CC(=O)NCC1CNC(=O)c2ccccc21 (centres unmarked) [2-F17, N-[(1-oxo-1,2,3,4-tetrahydroisoquinolin-4-yl)methyl]prop-2-enamide]
  viability at 48 h, 25 µM: 54.8%

## C=CC(=O)Nc1ccc(-c2nnnn2C)cc1 [2-F18, N-[4-(1-methyl-1H-1,2,3,4-tetrazol-5-yl)phenyl]prop-2-enamide]
  viability at 48 h, 25 µM: 95.5%

## C=CC(=O)NCc1cnc(C)n1-c1ccccc1 [2-F19, N-[(2-methyl-1-phenyl-1H-imidazol-5-yl)methyl]prop-2-enamide]
  viability at 48 h, 25 µM: 49%

## C=CC(=O)Nc1ccc(C(=O)N[C@@H]2CCN(C(C)=O)C2)cc1 [2-F20, N-[(3R)-1-acetylpyrrolidin-3-yl]-4-(prop-2-enamido)benzamide]
  viability at 48 h, 25 µM: 73.4%

## C=CC(=O)Nc1ccnc(OC)c1 [2-F21, N-(2-methoxypyridin-4-yl)prop-2-enamide]
  viability at 48 h, 25 µM: 1.66%

## C=CC(=O)NCc1ccc(C(=O)N2CCN(c3nc(C)n[nH]3)CC2)cc1 [2-F22, N-({4-[4-(3-methyl-1H-1,2,4-triazol-5-yl)piperazine-1-carbonyl]phenyl}methyl)prop-2-enamide]
  viability at 48 h, 25 µM: 78.3%

## C=CC(=O)N1CCC[C@H]1c1ccon1 [2-G03, 1-[(2S)-2-(1,2-oxazol-3-yl)pyrrolidin-1-yl]prop-2-en-1-one]
  viability at 48 h, 25 µM: 181%

## C=CC(=O)N1CCC(C(=O)NCC(C)(C)C=C)CC1 [2-G04, N-(2,2-dimethylbut-3-en-1-yl)-1-(prop-2-enoyl)piperidine-4-carboxamide]
  viability at 48 h, 25 µM: 84.5%

## C=CC(=O)Nc1nn(CC(C)C)cc1Cl [2-G05, N-[4-chloro-1-(2-methylpropyl)-1H-pyrazol-3-yl]prop-2-enamide]
  viability at 48 h, 25 µM: 103%

## C=CC(=O)N1Cc2ccccc2C[C@@H]1C(=O)NC1CC1 [2-G06, (3R)-N-cyclopropyl-2-(prop-2-enoyl)-1,2,3,4-tetrahydroisoquinoline-3-carboxamide]
  viability at 48 h, 25 µM: 101%
